Assay results as given in US20070098802A1, “Organic nanoparticles and associated methods” (priority 2005, published 2007).

Assay: Nanoparticle size by light scattering and scanning electron microscopy
Assay type: physicochemical
Settings: 0.5% (w/v), 5 mg/ml glyburide in 70% ethanol and 30% chloroform by weight; water added until clouding
Protocol: A 0.5% (w/v) mixture of 5 mg/ml of glyburide in 70% ethanol and 30% chloroform by weight is prepared. To this mixture, water is added until clouding is observed at which point the emulsion has formed. Light scattering and scanning electron microscopy show the resulting nanoparticle size is on average about 500 nm. A few large nanoparticles may be observed of up to 1 to 3 μm.

resulting nanoparticle size, on average: about 500 nm
Compound: COc1ccc(Cl)cc1C(=O)NCCc1ccc(S(=O)(=O)NC(=O)NC2CCCCC2)cc1 [glyburide]
